According to PubChem BioAssay AID248 (DTP/NCI, 2004):
“And” between values parts separate entries of the source, which are not always exact repeats. Equal entries are not always repeated. Inconclusive results and toxic doses are left out. Peptide text beside a SMILES is read from it. * marks the point of attachment. ONp = O=[N+]([O-])c1ccc(O*)cc1; Cbz = O=C(OCc1ccccc1)*

Test system: L1210 leukemia ip in BDF1 mice, survival T/C
Assay: NCI In Vivo Anticancer Drug Screen. Data for tumor model L1210 Leukemia (intraperitoneal) in B6D2F1 (BDF1) mice
Conditions: endpoint: mean survival time, higher = longer survival
Summary of the method: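 Survival endpoint. Drug-treated group vs vehicle group, expressed as T divided by C. Tumor passaged by transplantation.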

[1] = dose: 100.0 mg/kg/injection, schedule: Q04DX003 (ip), vehicle: saline with Tween-80
[2] = dose: 200.0 mg/kg/injection, schedule: Q01DX009 (ip), vehicle: saline with Tween-80
[3] = dose: 200.0 mg/kg/injection, schedule: Q04DX003 (ip), vehicle: saline with Tween-80
[4] = dose: 400.0 mg/kg/injection, schedule: Q04DX003 (ip), vehicle: saline with Tween-80
[5] = dose: 100.0 mg/kg/injection, schedule: Q04DX002 (ip), vehicle: Klucel (hydroxypropylcellulose) (HPC)
[6] = dose: 200.0 mg/kg/injection, schedule: Q04DX002 (ip), vehicle: Klucel (hydroxypropylcellulose) (HPC)
[7] = dose: 50.0 mg/kg/injection, schedule: Q04DX003 (ip), vehicle: Klucel (hydroxypropylcellulose) (HPC)
[8] = dose: 100.0 mg/kg/injection, schedule: Q04DX003 (ip), vehicle: Klucel (hydroxypropylcellulose) (HPC)
[9] = dose: 200.0 mg/kg/injection, schedule: Q01DX001 (ip), vehicle: Klucel (hydroxypropylcellulose) (HPC)
[10] = dose: 200.0 mg/kg/injection, schedule: Q04DX003 (ip), vehicle: Klucel (hydroxypropylcellulose) (HPC)
[11] = dose: 400.0 mg/kg/injection, schedule: Q04DX003 (ip), vehicle: Klucel (hydroxypropylcellulose) (HPC)

## O=C(CNC(=O)OCc1ccccc1)NCC(=O)Oc1ccc([N+](=O)[O-])cc1 (Cbz-Gly-Gly-ONp)
dose: 100.0 mg/kg/injection, schedule: Q01DX009 (ip), vehicle: saline with Tween-80
  T/C: 108 % of control
[1]
  T/C: 92 % of control
[2]
  T/C: 105 % of control
[3]
  T/C: 94 % of control
dose: 400.0 mg/kg/injection, schedule: Q01DX009 (ip), vehicle: saline with Tween-80
  T/C: 100 % of control
[4]
  T/C: 92 % of control

## COC(=O)c1ccccc1N(Cc1ccc(OC)c(OC)c1)S(=O)(=O)c1ccc(C)cc1
dose: 100.0 mg/kg/injection, schedule: Q01DX001 (ip), vehicle: saline
  T/C: 95 % of control
dose: 200.0 mg/kg/injection, schedule: Q01DX001 (ip), vehicle: saline
  T/C: 91 % of control
dose: 400.0 mg/kg/injection, schedule: Q01DX001 (ip), vehicle: saline
  T/C: 91 % of control

## O=C(O)CSC(CC(=O)O)C(F)(F)C(F)(F)C(F)(F)F (stereo unspecified)
dose: 100.0 mg/kg/injection, schedule: Q01DX009 (ip), vehicle: saline
  T/C: 100 % of control
dose: 100.0 mg/kg/injection, schedule: Q04DX003 (ip), vehicle: saline
  T/C: 96 % of control
dose: 200.0 mg/kg/injection, schedule: Q01DX009 (ip), vehicle: saline
  T/C: 97 % of control
dose: 200.0 mg/kg/injection, schedule: Q04DX003 (ip), vehicle: saline
  T/C: 98 % of control
dose: 400.0 mg/kg/injection, schedule: Q01DX009 (ip), vehicle: saline
  T/C: 104 % of control
dose: 400.0 mg/kg/injection, schedule: Q04DX003 (ip), vehicle: saline
  T/C: 93 % of control

## O=NN(CCCl)C(=O)Nc1ccc2c(c1)CCCC2
dose: 31.0 mg/kg/injection, schedule: Q01DX001 (ip), vehicle: carboxymethylcellulose (CMC)
  T/C: 124 % of control
dose: 84.0 mg/kg/injection, schedule: Q01DX001 (ip), vehicle: carboxymethylcellulose (CMC)
  T/C: 186 % of control
dose: 119.0 mg/kg/injection, schedule: Q01DX001 (ip), vehicle: carboxymethylcellulose (CMC)
  T/C: 231 % of control
dose: 125.0 mg/kg/injection, schedule: Q01DX001 (ip), vehicle: carboxymethylcellulose (CMC)
  T/C: 188 % of control
dose: 178.0 mg/kg/injection, schedule: Q01DX001 (ip), vehicle: carboxymethylcellulose (CMC)
  T/C: 216 % of control
dose: 187.0 mg/kg/injection, schedule: Q01DX001 (ip), vehicle: carboxymethylcellulose (CMC)
  T/C: 215 % of control
dose: 238.0 mg/kg/injection, schedule: Q01DX001 (ip), vehicle: carboxymethylcellulose (CMC)
  T/C: 223 % of control
dose: 250.0 mg/kg/injection, schedule: Q01DX001 (ip), vehicle: carboxymethylcellulose (CMC)
  T/C: 89 % of control
dose: 357.0 mg/kg/injection, schedule: Q01DX001 (ip), vehicle: carboxymethylcellulose (CMC)
  T/C: 101 % of control

## CCOC(=O)c1cc(Cl)ccc1O
dose: 100.0 mg/kg/injection, schedule: Q04DX002 (ip), vehicle: saline with Tween-80
  T/C: 89 % of control
dose: 200.0 mg/kg/injection, schedule: Q04DX002 (ip), vehicle: saline with Tween-80
  T/C: 92 % of control
dose: 400.0 mg/kg/injection, schedule: Q04DX002 (ip), vehicle: saline with Tween-80
  T/C: 92 % of control

## Cc1cc(C)c([S-])c(C)c1.[Cu+]
dose: 18.8 mg/kg/injection, schedule: Q01DX001 (ip), vehicle: saline
  T/C: 98 % of control

## CCCNC(=O)Nc1ccc(OCC)cc1
[5]
  T/C: 105 % of control
[6]
  T/C: 115 % of control
dose: 400.0 mg/kg/injection, schedule: Q04DX002 (ip), vehicle: Klucel (hydroxypropylcellulose) (HPC)
  T/C: 105 % of control

## CCN(CC)CCCC(C)NC(=O)c1cccc2c(N)cccc12 (stereo unspecified)
dose: 25.0 mg/kg/injection, schedule: Q01DX009 (ip), vehicle: water
  T/C: 110 % of control
dose: 50.0 mg/kg/injection, schedule: Q01DX009 (ip), vehicle: water
  T/C: 103 % of control
dose: 100.0 mg/kg/injection, schedule: Q01DX009 (ip), vehicle: water
  T/C: 101 % of control
dose: 200.0 mg/kg/injection, schedule: Q01DX009 (ip), vehicle: water
  T/C: 95 % of control
dose: 400.0 mg/kg/injection, schedule: Q01DX009 (ip), vehicle: water
  T/C: 103 % of control

## O=C(Nc1ccc([N+](=O)[O-])cc1Cl)Oc1ccc(Cl)cc1Cc1ccccc1
[1]
  T/C: 88 % of control
[3]
  T/C: 93 % of control
[4]
  T/C: 102 % of control

## N#Cc1ccc(NC(=O)N(CCCl)N=O)cc1
dose: 1.0 mg/kg/injection, schedule: Q01DX009 (ip), vehicle: saline
  T/C: 150 % of control
dose: 1.56 mg/kg/injection, schedule: Q01DX009 (ip), vehicle: saline
  T/C: 161 % of control
dose: 6.25 mg/kg/injection, schedule: Q01DX Z (ip), vehicle: carboxymethylcellulose (CMC)
  T/C: 160 % of control
dose: 12.5 mg/kg/injection, schedule: Q01DX Z (ip), vehicle: carboxymethylcellulose (CMC)
  T/C: 118 % of control
dose: 25.0 mg/kg/injection, schedule: Q01DX Z (ip), vehicle: carboxymethylcellulose (CMC)
  T/C: 104 % of control
dose: 37.5 mg/kg/injection, schedule: Q01DX001 (ip), vehicle: carboxymethylcellulose (CMC)
  T/C: 152 % of control
dose: 75.0 mg/kg/injection, schedule: Q01DX001 (ip), vehicle: carboxymethylcellulose (CMC)
  T/C: 153 % of control
dose: 150.0 mg/kg/injection, schedule: Q01DX001 (ip), vehicle: carboxymethylcellulose (CMC)
  T/C: 177 % of control

## c1ccc(N=C(Nc2ccccc2)c2ccccc2)cc1
[5]
  T/C: 103 % of control
[1]
  T/C: 94 % of control
[6]
  T/C: 111 % of control
[3]
  T/C: 91 % of control
[4]
  T/C: 92 % of control

## CC(C)(CBr)COC(=O)Nc1cccc2ccccc12
dose: 50.0 mg/kg/injection, schedule: Q01DX009 (ip), vehicle: saline with Tween-80
  T/C: 91 % of control
[2]
  T/C: 87 % of control

## O=C(Nc1ccc(Br)cc1C(F)(F)F)C(F)(F)F
[7]
  T/C: 102 % of control
dose: 100.0 mg/kg/injection, schedule: Q01DX001 (ip), vehicle: Klucel (hydroxypropylcellulose) (HPC)
  T/C: 100 % of control
[8]
  T/C: 104 % of control
[9]
  T/C: 94 % of control
[10]
  T/C: 112 % of control
dose: 400.0 mg/kg/injection, schedule: Q01DX001 (ip), vehicle: Klucel (hydroxypropylcellulose) (HPC)
  T/C: 97 % of control
[11]
  T/C: 105 % of control

## CNC(=O)Nc1ccccc1C(=O)OC
dose: 100.0 mg/kg/injection, schedule: Q01DX009 (ip), vehicle: Klucel (hydroxypropylcellulose) (HPC)
  T/C: 100 % of control
[8]
  T/C: 97 % of control
dose: 200.0 mg/kg/injection, schedule: Q01DX009 (ip), vehicle: Klucel (hydroxypropylcellulose) (HPC)
  T/C: 98 % of control
[10]
  T/C: 97 % of control
dose: 400.0 mg/kg/injection, schedule: Q01DX009 (ip), vehicle: Klucel (hydroxypropylcellulose) (HPC)
  T/C: 98 % of control
[11]
  T/C: 101 % of control

## CC1CN1C(=O)Nc1cccc2c(NC(=O)N3CC3C)cccc12 (stereo unspecified)
dose: 1.58 mg/kg/injection, schedule: Q01DX009 (ip), vehicle: Klucel (hydroxypropylcellulose) (HPC)
  T/C: 95 % of control
dose: 2.38 mg/kg/injection, schedule: Q01DX009 (ip), vehicle: Klucel (hydroxypropylcellulose) (HPC)
  T/C: 101 % of control
dose: 12.34 mg/kg/injection, schedule: Q01DX009 (ip), vehicle: Klucel (hydroxypropylcellulose) (HPC)
  T/C: 122 % of control
dose: 12.5 mg/kg/injection, schedule: Q04DX003 (ip), vehicle: Klucel (hydroxypropylcellulose) (HPC)
  T/C: 117 % of control
dose: 35.0 mg/kg/injection, schedule: Q04DX003 (ip), vehicle: Klucel (hydroxypropylcellulose) (HPC)
  T/C: 105 % of control
dose: 50.0 mg/kg/injection, schedule: Q01DX001 (ip), vehicle: Klucel (hydroxypropylcellulose) (HPC)
  T/C: 118 % of control and 121 % of control
[7]
  T/C: 157 % of control
dose: 55.0 mg/kg/injection, schedule: Q04DX003 (ip), vehicle: Klucel (hydroxypropylcellulose) (HPC)
  T/C: 207 % of control
dose: 75.0 mg/kg/injection, schedule: Q01DX001 (ip), vehicle: Klucel (hydroxypropylcellulose) (HPC)
  T/C: 119 % of control
dose: 75.0 mg/kg/injection, schedule: Q04DX003 (ip), vehicle: Klucel (hydroxypropylcellulose) (HPC)
  T/C: 117 % of control
dose: 85.0 mg/kg/injection, schedule: Q01DX009 (ip), vehicle: Klucel (hydroxypropylcellulose) (HPC)
  T/C: 89 % of control
dose: 85.0 mg/kg/injection, schedule: Q04DX003 (ip), vehicle: Klucel (hydroxypropylcellulose) (HPC)
  T/C: 116 % of control
dose: 170.0 mg/kg/injection, schedule: Q04DX003 (ip), vehicle: Klucel (hydroxypropylcellulose) (HPC)
  T/C: 118 % of control
[9]
  T/C: 88 % of control
